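Values below derive from 48-hour exposures of cells grown in 96-well plates, with endpoints linearly interpolated between the two concentrations bracketing the appropriate inhibition level. The concentration for full growth arrest is given as TGI.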
What was measured:
Test in all cases: inhibition of tumour cell growth, NCI panel, 48 h
HL-60(TB) leukemia = system: HL-60(TB) leukemia
HT29 colon = system: HT29 colon
SK-OV-3 ovarian = system: SK-OV-3 ovarian
PC-3 prostate = system: PC-3 prostate
TK-10 renal = system: TK-10 renal
A498 renal = system: A498 renal
BT-549 breast = system: BT-549 breast
COLO 205 colon = system: COLO 205 colon
NCI-H226 lung = system: NCI-H226 lung
MDA-MB-435 = system: MDA-MB-435
SF-268 CNS = system: SF-268 CNS
A549 NSCLC = system: A549 NSCLC
HS 578T breast = system: HS 578T breast
786-0 renal = system: 786-0 renal
OVCAR-3 ovarian = system: OVCAR-3 ovarian
CAKI-1 renal = system: CAKI-1 renal
IGROV1 ovarian = system: IGROV1 ovarian
MALME-3M melanoma = system: MALME-3M melanoma
SR leukemia = system: SR leukemia
OVCAR-8 ovarian = system: OVCAR-8 ovarian
SNB-75 CNS = system: SNB-75 CNS
SK-MEL-2 melanoma = system: SK-MEL-2 melanoma
SNB-19 CNS = system: SNB-19 CNS
HCT-116 colon = system: HCT-116 colon
UACC-62 melanoma = system: UACC-62 melanoma
MOLT-4 leukemia = system: MOLT-4 leukemia
CCRF-CEM leukemia = system: CCRF-CEM leukemia
NCI-H23 lung = system: NCI-H23 lung
K-562 leukemia = system: K-562 leukemia
NCI-H460 lung = system: NCI-H460 lung
NCI/ADR-RES ovarian = system: NCI/ADR-RES ovarian
HOP-62 NSCLC = system: HOP-62 NSCLC
KM12 colon = system: KM12 colon
HOP-92 NSCLC = system: HOP-92 NSCLC
MCF7 breast = system: MCF7 breast
DU-145 prostate = system: DU-145 prostate
M14 melanoma = system: M14 melanoma
HCT-15 colon = system: HCT-15 colon
U251 CNS = system: U251 CNS
SW-620 colon = system: SW-620 colon
SN12C renal = system: SN12C renal
UO-31 renal = system: UO-31 renal
OVCAR-4 ovarian = system: OVCAR-4 ovarian
SF-539 CNS = system: SF-539 CNS
UACC-257 melanoma = system: UACC-257 melanoma
SF-295 CNS = system: SF-295 CNS
RPMI-8226 leukemia = system: RPMI-8226 leukemia
LOX IMVI melanoma = system: LOX IMVI melanoma
MDA-N = system: MDA-N
MDA-MB-231 breast = system: MDA-MB-231 breast
SK-MEL-28 melanoma = system: SK-MEL-28 melanoma
T-47D breast = system: T-47D breast
SK-MEL-5 melanoma = system: SK-MEL-5 melanoma
RXF 393 renal = system: RXF 393 renal

COC(=O)C1=CS/C(=C2\S[C@@H]3[C@H](S2)[C@H]2C=C[C@@H]3C2)S1
TGI (HL-60(TB) leukemia): 57.9 µM | TGI (HT29 colon): 92.6 µM | TGI (SK-OV-3 ovarian): > 100 µM | TGI (PC-3 prostate): > 100 µM | TGI (TK-10 renal): > 100 µM | TGI (A498 renal): > 100 µM | TGI (BT-549 breast): > 100 µM | TGI (COLO 205 colon): > 100 µM | TGI (NCI-H226 lung): > 100 µM | TGI (MDA-MB-435): 5.09 µM | TGI (SF-268 CNS): > 100 µM | TGI (A549 NSCLC): > 100 µM | TGI (HS 578T breast): > 100 µM | TGI (786-0 renal): > 100 µM | TGI (OVCAR-3 ovarian): > 100 µM | TGI (CAKI-1 renal): > 100 µM | TGI (IGROV1 ovarian): > 100 µM | TGI (MALME-3M melanoma): > 100 µM | TGI (SR leukemia): > 100 µM | TGI (OVCAR-8 ovarian): > 100 µM | TGI (SNB-75 CNS): > 100 µM | TGI (SK-MEL-2 melanoma): > 100 µM | TGI (SNB-19 CNS): > 100 µM | TGI (HCT-116 colon): > 100 µM | TGI (UACC-62 melanoma): > 100 µM | TGI (MOLT-4 leukemia): > 100 µM | TGI (CCRF-CEM leukemia): > 100 µM | TGI (NCI-H23 lung): > 100 µM | TGI (K-562 leukemia): 18.5 µM | TGI (NCI-H460 lung): > 100 µM | TGI (NCI/ADR-RES ovarian): 47.8 µM | TGI (HOP-62 NSCLC): > 100 µM | TGI (KM12 colon): > 100 µM | TGI (HOP-92 NSCLC): > 100 µM | TGI (MCF7 breast): > 100 µM | TGI (DU-145 prostate): > 100 µM | TGI (M14 melanoma): > 100 µM | TGI (HCT-15 colon): > 100 µM | TGI (U251 CNS): > 100 µM | TGI (SW-620 colon): > 100 µM | TGI (SN12C renal): > 100 µM | TGI (UO-31 renal): > 100 µM | TGI (OVCAR-4 ovarian): > 100 µM | TGI (SF-539 CNS): 32.5 µM | TGI (UACC-257 melanoma): > 100 µM | TGI (SF-295 CNS): 17.9 µM | TGI (RPMI-8226 leukemia): > 100 µM | TGI (LOX IMVI melanoma): > 100 µM | TGI (MDA-N): > 100 µM | TGI (MDA-MB-231 breast): > 100 µM | TGI (SK-MEL-28 melanoma): > 100 µM | TGI (T-47D breast): > 100 µM | TGI (SK-MEL-5 melanoma): > 100 µM | TGI (RXF 393 renal): > 100 µM

Reference: PubChem BioAssay (NCI)
